Source: US20080319065A1, “Systemic and Intrathecal Effects of a Novel Series of Phospholipase A2 Inhibitors on Hyperalgesia and Spinal Pge2 Release” (The Regents of the University of California, priority 2005, published 2008)

Experiments:
[1] = biological target: T1, Group IVA cPLA2 (GIVA PLA2) (Homo sapiens, UniProt P47712); assay: In vitro Group IVA cPLA2 mixed micelle assay; type: biochemical; conditions: for Group IVA XI(50) (mole fraction): Table 1b; for Inhibition of GIVA PLA2: at highest dose; for inhibition at 0.091 mole fraction: read-out: cPLA2 inh, percent inhibition (converted)
T1 sequence (P47712 1-749): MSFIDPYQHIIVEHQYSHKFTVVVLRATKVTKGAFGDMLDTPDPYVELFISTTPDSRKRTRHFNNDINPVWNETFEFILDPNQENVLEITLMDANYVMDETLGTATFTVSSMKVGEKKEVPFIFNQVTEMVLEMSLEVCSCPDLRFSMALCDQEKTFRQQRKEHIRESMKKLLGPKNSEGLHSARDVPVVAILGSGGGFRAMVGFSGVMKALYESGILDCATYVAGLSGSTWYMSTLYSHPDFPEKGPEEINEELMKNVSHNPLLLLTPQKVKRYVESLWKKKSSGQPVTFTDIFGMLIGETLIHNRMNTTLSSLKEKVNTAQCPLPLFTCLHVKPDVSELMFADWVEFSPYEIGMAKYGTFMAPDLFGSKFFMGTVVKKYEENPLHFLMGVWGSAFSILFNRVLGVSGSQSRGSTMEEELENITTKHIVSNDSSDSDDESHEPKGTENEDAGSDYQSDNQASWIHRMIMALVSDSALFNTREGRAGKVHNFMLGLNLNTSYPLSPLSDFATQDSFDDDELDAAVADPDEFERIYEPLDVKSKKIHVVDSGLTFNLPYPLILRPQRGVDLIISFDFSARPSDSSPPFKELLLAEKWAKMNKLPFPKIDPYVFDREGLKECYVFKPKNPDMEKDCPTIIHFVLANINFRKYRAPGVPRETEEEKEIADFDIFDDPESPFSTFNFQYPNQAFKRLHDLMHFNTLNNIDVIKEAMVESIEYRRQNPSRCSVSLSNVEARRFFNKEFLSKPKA
Method: (§1) Numerous 2-oxoamides were tested for inhibition of PLA2s in in vitro assay systems. The data, summarized in Tables 1a, 1b and 2 are represented as XI(50) values unless otherwise noted. XI(50) is defined as the inhibitor concentration that produced 50% inhibition. XI(50) is used as opposed to the more common IC50 because GIVA and GVIA PLA2 are active at a two-dimensional lipid interface rather than in three-dimensional solution. (Deems, Anal. Biochem., 287:1-16, 2000). The 2-oxoamide inhibitors likely partition to the micelle interface and therefore must be represented as a percentage of surface concentration (mole fraction) as opposed to bulk concentration (molar units). (Kokotos, et al., J. Med. Chem., 45:2891-2893, 2002).
(§2) In vitro Group IV cPLA2 and Group VI iPLA2 assays were done as previously described (Kokotos, et al., supra, 2002). Briefly, 100 μM lipid substrate and 100,000 cpm radiolabeled analog were dried down under N2 and dissolved in assay buffer containing 400 μM Triton X-100 to yield a mixed micelle substrate solution. Inhibitors dissolved in DMSO were added to the reaction tubes and allowed to incubate with substrate for five minutes at 40° C. Pure enzyme was added to yield a final volume of 500 μl, and digestion was carried out at 40° C. for 30 minutes. Reactions were quenched and extracted using the Dole method and products were quantified by liquid scintillation counting. Percent inhibition was determined at a range of inhibitor mole fraction concentrations for XI(50) calculations.

[2] = biological target: T2, Group VIA iPLA2 (GVIA PLA2) (Homo sapiens, UniProt O60733); assay: In vitro Group VIA iPLA2 mixed micelle assay; type: biochemical; conditions: for Inhibition of GVIA PLA2: at highest dose; for inhibition at 0.091 mole fraction: read-out: iPLA2 inh, percent inhibition
T2 sequence (O60733 1-806): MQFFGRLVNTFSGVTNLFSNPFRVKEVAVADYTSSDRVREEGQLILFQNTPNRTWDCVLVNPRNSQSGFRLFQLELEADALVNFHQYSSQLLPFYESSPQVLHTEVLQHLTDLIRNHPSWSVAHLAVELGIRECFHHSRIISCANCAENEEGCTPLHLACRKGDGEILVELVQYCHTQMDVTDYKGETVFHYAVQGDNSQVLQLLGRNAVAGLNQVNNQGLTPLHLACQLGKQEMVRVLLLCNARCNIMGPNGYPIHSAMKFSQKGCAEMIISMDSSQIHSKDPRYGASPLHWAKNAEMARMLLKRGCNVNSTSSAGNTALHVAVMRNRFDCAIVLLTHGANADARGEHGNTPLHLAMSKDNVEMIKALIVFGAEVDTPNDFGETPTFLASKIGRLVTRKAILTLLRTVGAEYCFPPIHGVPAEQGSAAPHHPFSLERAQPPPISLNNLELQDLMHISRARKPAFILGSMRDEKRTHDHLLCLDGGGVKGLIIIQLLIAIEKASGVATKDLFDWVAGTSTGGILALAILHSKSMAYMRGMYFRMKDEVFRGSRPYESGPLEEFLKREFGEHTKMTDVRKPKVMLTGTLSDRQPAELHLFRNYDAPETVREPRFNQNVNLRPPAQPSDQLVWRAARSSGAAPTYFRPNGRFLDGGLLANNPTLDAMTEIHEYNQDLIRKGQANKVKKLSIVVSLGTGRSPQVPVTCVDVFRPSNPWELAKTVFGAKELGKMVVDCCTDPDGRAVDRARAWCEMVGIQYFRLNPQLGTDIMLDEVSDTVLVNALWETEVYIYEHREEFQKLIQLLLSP
Method: as §1, §2

spinal release of PGE2 = assay: Intrathecal dialysis and PGE2 assay; type: in vivo, rat; conditions: 3 mg/kg IP pretreatment
Description: For spinal drug injections, lumbar catheters were implanted in rats under isoflurane anesthesia according to a modification of the procedure described by Yaksh (Yaksh and Rudy, supra, 1976). A polyethylene catheter (PE-5; Spectranetics, 0.014 in OD) was inserted into the intrathecal space and advanced to the rostral edge of the lumbar enlargement through an incision in the atlanto-occipital membrane. Five days after implantation rats were entered into the study. In separate experiments to assess spinal prostaglandins release, rats were prepared with lumbar loop dialysis catheters with three lumens, as previously described, see (Yaksh, et al., supra, 2001).
In brief, the outer two lumens were connected to a length of dialysis tubing (10 Kda cut off). The catheter was then implanted intrathecally using the same technique as described above for the intrathecal catheter. A three-day interval was allowed to elapse prior to including the animal in a study. In all cases, the exclusion criteria were i) presence of any neurological sequelae, ii) 20% weight loss after implantation, or iii) catheter occlusion.
Spinal dialysis experiments to define the spinal release of PGE2 were conducted in unanesthetized rats 3 days after dialysis catheter implantation. A syringe pump (Harvard, Natick, Mass.) was connected and dialysis tubing was perfused with artificial cerebro spinal fluid (ACSF) at a rate of 10 μl/min. The ACSF contained (mM) 151.1 Na^+, 2.6 K^+, 0.9 Mg^2+, 1.3 Ca^2+, 122.7 Cl^−, 21.0 HCO3, 2.5 HPO4 and 3.5 dextrose and was bubbled with 95% O2/5% CO2 before each experiment to adjust the final pH to 7.2. The efflux (20 min per fraction) was collected in an automatic fraction collector (Eicom, Kyoto, Japan) at 4° C. […] The concentration of PGE2 in spinal dialysate was measured by ELISA using a commercially available kit (Assay Designs 90001, Assay Designs, Ann Arbor, Mich.). The antibody is selective for PGE2 with less than 2.0% cross-reactivity to PGF1, PGF2, 6-ketoPGF1, PGA2 or PGB2, but cross-reacts with PGE1 and PGE3.

GV sPLA2 = biological target: T3, GV sPLA2 (Homo sapiens, UniProt P39877); assay: GV sPLA2 activity assay; type: biochemical; conditions: for inhibition at 0.091 mole fraction: read-out: sPLA2 inh., percent inhibition
T3 sequence (P39877 21-138): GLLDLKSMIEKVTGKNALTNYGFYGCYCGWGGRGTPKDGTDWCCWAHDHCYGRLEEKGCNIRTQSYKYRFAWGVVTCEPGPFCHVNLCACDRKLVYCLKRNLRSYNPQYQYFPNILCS
Method: GV sPLA2 activity was measured in a similar assay. The final assay buffer was composed of 50 mM Tris-HCl (pH 8.0) and 5 mM CaCl2. Each assay was performed in 500 μL total volume made up of 100 μL of 5× substrate solution (20 μL of 10 mM Triton X-100 and 80 μL assay buffer), 390 μL assay buffer, 10 μL GV sPLA2 solution (1 μL of 40 ng/μL stock and 9 μL assay buffer), and 5 μL of DMSO or 2-oxoamide in DMSO. The 5× substrate solution was prepared by drying down the phospholipids (in organic solvent) with N2. The appropriate volume of 10 mM Triton X-100 was added, heated and vortexed until clear. Then assay buffer was added to make a 5× substrate solution. The final mixed micelles were at 400 μM Triton X-100 and 100 μM DPPC (of which 100,000 cpm of ^14C-DPPC).

Compound	Inhibition of GVIA PLA2 [2]	Inhibition of GIVA PLA2 [1]	melting point [°C]	inhibition at 0.091 mole fraction [1] [%]	inhibition at 0.091 mole fraction ([2]; at 0.091 mole fraction) [%]	inhibition at 0.091 mole fraction (GV sPLA2) [%]	also measured
CCC(=O)C(=O)NCCCC(=O)O [AX006]	ND (negligible inhibition (0-25%) at highest dose)	–	–	–	–	–	inhibition of GIVA PLA2 (cPLA2), in words [1]: inhibit GIVA PLA2; Group IVA XI(50) (mole fraction) [1]: 0.024 ± 0.015 mole fraction; inhibition of GVIA PLA2 (iPLA2), in words [2]: do not inhibit GVIA PLA2; Group VIA XI(50), class ([2]; at 0.091 mole fraction): N.D. (25% inhibition or less at 0.091 mole fraction); IT SP-evoked release of PGE2 in spinal dialysate (spinal release of PGE2): significant increase as compared to vehicle only
O=C(O)CCCNC(=O)C(=O)CCCCc1ccccc1 [AX035, 4-(2-Oxo-6-phenyl-hexanoylamino)-butyric acid]	ND (negligible inhibition (0-25%) at highest dose)	ND (negligible inhibition (0-25%) at highest dose)	60 to 62	–	–	–	–
O=C(O)CCCNC(=O)C(=O)CCCc1ccccc1 [AX036, 4-(2-Oxo-5-phenyl-pentanoylamino)-butyric acid]	ND (negligible inhibition (0-25%) at highest dose)	ND (negligible inhibition (0-25%) at highest dose)	65 to 67	–	–	–	–
COC(=O)CCCNC(=O)C(=O)CCCc1ccccc1 [AX037, 4-(2-Oxo-5-phenyl-pentanoylamino)-butyric acid methyl ester]	ND (negligible inhibition (0-25%) at highest dose)	ND (negligible inhibition (0-25%) at highest dose)	30 to 31	–	–	–	–
COC(=O)CCCNC(=O)C(=O)CCCCc1ccccc1 [AX038, 4-(2-Oxo-6-phenyl-hexanoylamino)-butyric acid methyl ester]	ND (negligible inhibition (0-25%) at highest dose)	ND (negligible inhibition (0-25%) at highest dose)	52 to 54	–	–	–	–
CCCCCCCCC=CCCCCCCCC(=O)C(=O)NCCCC(=O)O [AX040, 4-(2-Oxo-nonadec-10-enoylamino)-butyric acid]	ND (negligible inhibition (0-25%) at highest dose)	–	57 to 59	–	–	–	inhibition of GIVA PLA2 (cPLA2), in words [1]: inhibit GIVA PLA2; inhibition of GVIA PLA2 (iPLA2), in words [2]: do not inhibit GVIA PLA2
CCCCCCCCCCCCCCC(=O)C(=O)NCCCC(=O)OC(C)(C)C [AX057, tert-Butyl 4-[(2-oxohexadecanoyl)amino]butanoate]	–	–	61 to 62	–	–	–	Group IVA XI(50) (mole fraction) [1]: 0.031 ± 0.017 mole fraction; Group VIA XI(50) (mole fraction) ([2]; Table 1b): 0.026 ± 0.014 mole fraction; efficacy against sPLA2 (GV sPLA2; at 0.091 mole fraction): 76.7%; IT SP-evoked release of PGE2 in spinal dialysate (spinal release of PGE2): significant increase as compared to vehicle only
CCCCCCCCCCCCCCC(=O)C(=O)NC(C=CC(=O)O)CCCC (centres unmarked) [AX074, 4-(2-Oxo-hexadecanoylamino)-oct-2-enoic acid]	ND (negligible inhibition (0-25%) at highest dose)	–	65 to 67	–	–	–	Inhibition of GIVA PLA2, XI(50) [1]: XI(50) =0.003 ± 0.001 mole fraction; inhibition of GIVA PLA2 (cPLA2), in words [1]: inhibit GIVA PLA2; inhibition of GVIA PLA2 (iPLA2), in words [2]: do not inhibit GVIA PLA2
CCCC[C@H](NC(=O)C(=O)CC)C(=O)NCC(=O)OC(C)(C)C [AX121]	–	–	–	72	89.6	58.5	–
CCCC[C@@H](COCC(=O)OC(C)(C)C)NC(=O)C(=O)CC [AX122]	–	–	–	43.6	81	57.2	–
C=CCOC(=O)CCCNC(=O)C(=O)CC [AX126]	–	–	–	52.9	63.2	37.9	–
CCC[C@H](NC(=O)C(=O)CC)C(=O)NCC(=O)OCC [AX127]	–	–	–	72.6	93.9	63.1	–
CCC[C@@H](COCC(=O)OCC)NC(=O)C(=O)CC [AX128]	–	–	–	52.3	92.8	80.6	–
